Measured values: ChEMBL document CHEMBL5550161, “Discovery of novel small molecules targeting the USP21/JAK2/STAT3 axis for the treatment of triple-negative breast cancer” (Eur J Med Chem, 2024)
Active and inactive are the calls of the source. The calls are words filed in the database; no cut-off is given here.

How the values were obtained:
[1] = target: Tyrosine-protein kinase JAK2 (Homo sapiens, UniProt O60674); assay: Induction of JAK2 degradation in human HCC1806 cells at 0.2 uM incubated for 18 to 72 hrs by Western blot analysis; type: cell-based; settings: time 18-72 hrs
MDA-MB-231 [2] = assay: Induction of apoptosis in human MDA-MB-231 cells assessed as decrease in JAK2 level by Western blot analysis; type: functional, cell-based; settings: dose 0.1-0.4 µM
MDA-MB-231 [3] = assay: Induction of apoptosis in human MDA-MB-231 cells assessed as ROS production rate at 0.1 uM incubated for 24 hrs by DCFH-DA staining based flow cytometry (reference value: 0.28 %); type: functional
MDA-MB-231 [4] = assay: Induction of apoptosis in human MDA-MB-231 cells assessed as early apoptotic cells at 0.2 uM incubated for 24 hrs by Annexin V-FITC/PI staining based flow cytometry (reference value: 1.16 %); type: functional
[5] = Tmax in Sprague-Dawley rat at 4 mg/kg, ip; type: ADME, organism-based; settings: in vivo
HCC1806 [6] = assay: Induction of apoptosis in human HCC1806 cells assessed as decrease in JAK1 level by Western blot analysis; type: functional, cell-based; settings: dose 0.1-0.4 µM
HCC1806 [7] = assay: Induction of apoptosis in human HCC1806 cells assessed as early apoptotic cells at 0.4 uM incubated for 24 hrs by Annexin V-FITC/PI staining based flow cytometry (reference value: 0.67 %); type: functional
HCC1806 [8] = assay: Effect on UCHL3 level in human HCC1806 cells at 0.1 to 0.4 uM incubated for 24 hrs by Western blot analysis; type: functional, cell-based; settings: dose 0.1-0.4 µM
HCC1806 [9] = assay: Induction of apoptosis in human HCC1806 cells assessed as late apoptotic cells at 0.8 uM incubated for 24 hrs by Annexin V-FITC/PI staining based flow cytometry (reference value: 0.23 %); type: functional
HCC1806 [10] = assay: Induction of cell cycle arrest at G2/M phase in human HCC1806 cells at 0.1 to 0.4 uM incubated for 24 hrs; type: functional, cell-based; settings: dose 0.1-0.4 µM
MDA-MB-231 [11] = assay: Induction of apoptosis in human MDA-MB-231 cells assessed as viable cells at 0.8 uM incubated for 24 hrs by Annexin V-FITC/PI staining based flow cytometry (reference value: 97.54 %); type: functional; settings: read-out: Activity
MDA-MB-231 [12] = assay: Induction of apoptosis in human MDA-MB-231 cells assessed as late apoptotic cells at 0.2 uM incubated for 24 hrs by Annexin V-FITC/PI staining based flow cytometry (reference value: 1.23 %); type: functional
HCC1806 [13] = assay: Induction of apoptosis in human HCC1806 cells assessed as late apoptotic cells at 0.1 uM incubated for 24 hrs by Annexin V-FITC/PI staining based flow cytometry (reference value: 0.23 %); type: functional
HCC1806 [14] = assay: Induction of apoptosis in human HCC1806 cells assessed as late apoptotic cells at 0.2 uM incubated for 24 hrs by Annexin V-FITC/PI staining based flow cytometry (reference value: 0.23 %); type: functional
MDA-MB-231 [15] = assay: Induction of apoptosis in human MDA-MB-231 cells assessed as late apoptotic cells at 0.1 uM incubated for 24 hrs by Annexin V-FITC/PI staining based flow cytometry (reference value: 1.23 %); type: functional
HCC1806 [16] = assay: Induction of apoptosis in human HCC1806 cells assessed as late apoptotic cells at 0.4 uM incubated for 24 hrs by Annexin V-FITC/PI staining based flow cytometry (reference value: 0.23 %); type: functional
MDA-MB-231 [17] = assay: Induction of apoptosis in human MDA-MB-231 cells assessed as ROS production rate at 0.2 uM incubated for 24 hrs by DCFH-DA staining based flow cytometry (reference value: 0.28 %); type: functional
[18] = Half life in Sprague-Dawley rat at 4 mg/kg, ip; type: ADME, organism-based; settings: in vivo
MCF7 = assay: Anti-proliferative activity against human MCF7 cells assessed as cell growth inhibition incubated for 72 hrs by MTT assay; type: functional, cell-based; settings: MCF7, 72 h
MDA-MB-231 [19] = assay: Induction of apoptosis in human MDA-MB-231 cells assessed as early apoptotic cells at 1.6 uM incubated for 24 hrs by Annexin V-FITC/PI staining based flow cytometry (reference value: 1.16 %); type: functional
MDA-MB-231 [20] = assay: Induction of apoptosis in human MDA-MB-231 cells assessed as ROS production rate at 0.4 uM incubated for 24 hrs by DCFH-DA staining based flow cytometry (reference value: 0.28 %); type: functional
HCC1806 [21] = assay: Induction of apoptosis in human HCC1806 cells assessed as necrotic cells at 0.4 uM incubated for 24 hrs by Annexin V-FITC/PI staining based flow cytometry (reference value: 0.15 %); type: functional
MDA-MB-231 [22] = assay: Induction of apoptosis in human MDA-MB-231 cells assessed as viable cells at 0.4 uM incubated for 24 hrs by Annexin V-FITC/PI staining based flow cytometry (reference value: 97.54 %); type: functional; settings: read-out: Activity
HCC1806 [23] = assay: Induction of apoptosis in human HCC1806 cells assessed as viable cells at 0.4 uM incubated for 24 hrs by Annexin V-FITC/PI staining based flow cytometry (reference value: 98.95 %); type: functional; settings: read-out: Activity

Tyrosine-protein kinase JAK2, sequence (O60674 whole entry): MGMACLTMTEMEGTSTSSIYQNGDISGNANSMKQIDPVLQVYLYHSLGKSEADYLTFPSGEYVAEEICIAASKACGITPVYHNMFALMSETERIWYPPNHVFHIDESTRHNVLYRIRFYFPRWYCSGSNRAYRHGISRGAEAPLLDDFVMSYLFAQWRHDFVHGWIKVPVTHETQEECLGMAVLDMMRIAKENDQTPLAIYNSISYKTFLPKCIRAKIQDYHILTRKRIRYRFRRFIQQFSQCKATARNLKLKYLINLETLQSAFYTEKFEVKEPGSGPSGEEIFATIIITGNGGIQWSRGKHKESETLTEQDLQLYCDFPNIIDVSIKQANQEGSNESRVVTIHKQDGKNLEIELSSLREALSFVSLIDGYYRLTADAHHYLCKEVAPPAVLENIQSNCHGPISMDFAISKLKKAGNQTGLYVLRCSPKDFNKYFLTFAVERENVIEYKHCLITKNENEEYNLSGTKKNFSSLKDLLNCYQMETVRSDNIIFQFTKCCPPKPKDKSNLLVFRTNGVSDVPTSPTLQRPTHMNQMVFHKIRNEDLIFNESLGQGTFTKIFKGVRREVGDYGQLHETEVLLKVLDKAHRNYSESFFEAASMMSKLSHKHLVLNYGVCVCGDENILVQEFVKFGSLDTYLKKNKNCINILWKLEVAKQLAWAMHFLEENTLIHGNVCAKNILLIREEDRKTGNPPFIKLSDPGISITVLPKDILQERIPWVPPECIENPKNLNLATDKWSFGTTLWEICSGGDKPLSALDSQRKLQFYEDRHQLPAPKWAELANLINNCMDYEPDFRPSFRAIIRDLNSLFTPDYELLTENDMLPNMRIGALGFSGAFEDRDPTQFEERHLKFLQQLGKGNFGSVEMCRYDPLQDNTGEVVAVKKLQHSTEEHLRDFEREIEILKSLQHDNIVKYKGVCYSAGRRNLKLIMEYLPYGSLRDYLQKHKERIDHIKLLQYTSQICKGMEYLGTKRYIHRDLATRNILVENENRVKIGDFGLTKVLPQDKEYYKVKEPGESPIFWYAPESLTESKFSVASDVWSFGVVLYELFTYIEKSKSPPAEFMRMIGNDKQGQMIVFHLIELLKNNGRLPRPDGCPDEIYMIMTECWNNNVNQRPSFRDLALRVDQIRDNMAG

Compound: COc1cc(Nc2cc(F)ccc2C(=O)NCCc2c[nH]c3c(F)ccc(F)c23)cc(OC)c1OC
- Activity [1]: Active
- Activity (MDA-MB-231 [2]): Active
- Activity (MDA-MB-231 [3]): 0.61%
- Activity (MDA-MB-231 [4]): 1.99%
- Tmax [5]: 2.67 h
- Activity (HCC1806 [6]): Active
- Activity (HCC1806 [7]): 2.94%
- Activity (HCC1806 [8]): inactive
- Activity (HCC1806 [9]): 1.48%
- Activity (HCC1806 [10]): Active
- viability at 0.8 µM (MDA-MB-231 [11]): 94.6%
- Activity (MDA-MB-231 [12]): 1.69%
- Activity (HCC1806 [13]): 0.29%
- Activity (HCC1806 [14]): 0.45%
- Activity (MDA-MB-231 [15]): 1.23%
- Activity (HCC1806 [16]): 0.76%
- Activity (MDA-MB-231 [17]): 1.06%
- half-life [18]: 5.57 h
- IC50 (MCF7): 1.45 µM
- Activity (MDA-MB-231 [19]): 7.55%
- Activity (MDA-MB-231 [20]): 3.17%
- Activity (HCC1806 [21]): 0.28%
- viability at 0.4 µM (MDA-MB-231 [22]): 95.7%
- viability at 0.4 µM (HCC1806 [23]): 96%
